Assay [1] has as its target T1, B1R receptor of the rat (rB1R) (Rattus norvegicus, UniProt P97583).
T1 construct: expressed in transfected cells; host or cells: CHO K1 cells
T1 sequence (P97583 1-337): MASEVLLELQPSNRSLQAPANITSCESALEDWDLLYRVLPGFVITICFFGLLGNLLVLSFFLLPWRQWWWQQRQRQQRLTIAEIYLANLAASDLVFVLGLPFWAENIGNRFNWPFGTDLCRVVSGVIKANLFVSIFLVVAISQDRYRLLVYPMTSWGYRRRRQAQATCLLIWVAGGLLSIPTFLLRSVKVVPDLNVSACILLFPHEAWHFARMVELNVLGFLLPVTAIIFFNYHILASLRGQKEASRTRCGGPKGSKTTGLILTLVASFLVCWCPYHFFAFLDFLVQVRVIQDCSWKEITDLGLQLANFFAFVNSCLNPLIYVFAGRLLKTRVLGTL
Put plainly: Functional investigation on the bradykinin 1 receptor (B1R), FLIPR Ca2+ assay, rB1R cells. It is filed as cell-based. To be noted: test substance 10 μM; CHO K1 cells transfected with rat B1R gene; Fluo-4 Ca2+ signal; agonist Des-Arg9-bradykinin at EC80; % of maximum achievable inhibition; read-out: B1R antagonism, rat [10 μM] % inhibition. In short, it runs like this:
(§1)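 CHO K1 cells stably expressing human or rat B1R, Fluo-4 loaded, read by FLIPR (λex 488, λem 540 nm). Test compound (10 μM) first gave % activation against Lys-Des-[MUT]-bradykinin ≥50 nM (hB1R) or Des-[MUT]-bradykinin 10 μM (rB1R). After 10–20 min, agonist at EC80 was added; % inhibition or IC50 from concentration series, n=2–3, N≥2.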

The target of assay [2] is T2, human B1R receptor (hB1R) (Homo sapiens, UniProt P46663).
T2 construct: expressed in transfected cells; host or cells: CHO K1 cells
T2 sequence (P46663 1-353): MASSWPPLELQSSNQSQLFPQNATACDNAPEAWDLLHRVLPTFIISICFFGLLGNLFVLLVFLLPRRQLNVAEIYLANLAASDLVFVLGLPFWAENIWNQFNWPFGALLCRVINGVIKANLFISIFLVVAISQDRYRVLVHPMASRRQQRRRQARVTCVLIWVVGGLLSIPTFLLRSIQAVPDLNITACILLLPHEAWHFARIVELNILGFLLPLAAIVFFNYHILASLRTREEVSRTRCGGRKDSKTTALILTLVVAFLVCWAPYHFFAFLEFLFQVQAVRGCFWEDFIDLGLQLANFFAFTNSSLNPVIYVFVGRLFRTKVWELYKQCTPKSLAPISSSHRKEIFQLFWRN
The experiment in a line: Functional investigation on the bradykinin 1 receptor (B1R), FLIPR Ca2+ assay, hB1R cells. It is filed as cell-based. The note with it: test substance 10 μM; CHO K1 cells transfected with human B1R gene; Fluo-4 Ca2+ signal; agonist Lys-Des-Arg9-bradykinin at EC80; % of maximum achievable inhibition; read-out: B1R antagonism, human [10 μM] % inhibition. In short, it runs like this:
as §1

Structures can show the parent of a compound that is named as a salt.

With `COc1ccc(S(=O)(=O)N2CCC[C@H]2CCCS(=O)(=O)N2CCC3(CCN(c4ccncc4)CC3)CC2)c2ccccc12` [Example 77, 3-(3-((S)-1-(4-Methoxynaphthalen-1-ylsulfonyl)pyrrolidin-2-yl)propylsulfonyl)-9-(pyridin-4-yl)-3,9-diazaspiro[5.5]undecane], the inhibition at 10 µM is 97% in assay [1] and 81% in assay [2].
The like results for `COc1cc(C)c(S(=O)(=O)N2CCC[C@H]2CCCS(=O)(=O)N2CCC3(CCN(c4ccncc4)CC3)CC2)c(C)c1` [Example 64, 3-(3-((S)-1-(4-Methoxy-2,6-dimethylphenylsulfonyl)pyrrolidin-2-yl)propylsulfonyl)-9-(pyridin-4-yl)-3,9-diazaspiro[5.5]undecane] were, in that order, 99% and 99%.
As to `O=S(=O)(CCC[C@@H]1CCCN1S(=O)(=O)c1c(Cl)cc(C(F)(F)F)cc1Cl)N1CCC(Oc2ccncc2)CC1` [Example 72, (S)-4-(1-(3-(1-(2,6-Dichloro-4-(Trifluoromethyl)phenylsulfonyl)pyrrolidin-2-yl)propylsulfonyl)piperidin-4-yloxy)pyridine], the inhibition at 10 µM in assay [1] turned out to be 45%; in assay [2], 38%.
The like results for `CN1CCC(N2CCN(S(=O)(=O)CCCCC3CCCN3S(=O)(=O)c3cccc4ccccc34)CC2)CC1` (stereo not drawn) [Example 5, 1-(1-Methylpiperidin-4-yl)-4-(4-(1-(naphthalen-1-ylsulfonyl)pyrrolidin-2-yl)butylsulfonyl)piperazine dihydrochloride] were, in that order, 56% and 49%.
On the same counts, the results for `COc1cc(C)c(S(=O)(=O)N2CCC[C@H]2CCCS(=O)(=O)N2CC(N3[C@@H]4CC[C@H]3C[C@H](Oc3ccncc3)C4)C2)c(C)c1` [Example 80, (1R,3s,5S)-8-(1-(3-((S)-1-(4-Methoxy-2,6-ydimethylphenylsulfonyl)pyrrolidin-2-l)propylsulfonyl)azetidin-3-yl)-3-(pyridin-4-yloxy)-8-azabicyclo[3.2.1]octane] are 102% and 99%.
On the same counts, the results for `COc1cc(C)c(S(=O)(=O)N2CCC[C@H]2CCCS(=O)(=O)N2CCN(C3CCN(C)CC3)CC2)c(C)c1` [Example 32, (S)-1-(3-(1-(4-Methoxy-2,6-dimethylphenylsulfonyl)pyrrolidin-2-yl)propylsulfonyl)-4-(1-methylpiperidin-4-yl)piperazine] are 99% and 105%.
For `Cc1cccc(Cl)c1S(=O)(=O)N1CCC[C@H]1CCCS(=O)(=O)N1CCC2(CCN(c3ccncc3)C2)C1` (stereo partly drawn) [Example 83, 2-(3-((S)-1-(2-Chloro-6-methylphenylsulfonyl)pyrrolidin-2-yl)propylsulfonyl)-7-(pyridin-4-yl)-2,7-diazaspiro[4.4]nonane], the inhibition at 10 µM in assay [1] was 104%; in assay [2], 99%.
Consider `Cc1cc(S(=O)(=O)N2CCC(CCS(=O)(=O)N3CCC(CCN4CCCC4)CC3)C2)c(C)cc1Cl` (stereo not drawn) [Example 19, 1-(2-(1-(4-Chloro-2,5-dimethylphenylsulfonyl)pyrrolidin-3-yl)ethylsulfonyl)-4-(2-(pyrrolidin-1-yl)ethyl)piperidine], for which the inhibition at 10 µM was 13% in assay [1] and 77% in assay [2].
The like results for `Cc1cccc(Cl)c1S(=O)(=O)N1CCC[C@H]1CCCS(=O)(=O)N1CCC2(CCN(c3ccncc3)CC2)CC1` [Example 65, 3-(3-((S)-1-(2-Chloro-6-methylphenylsulfonyl)pyrrolidin-2-yl)propylsulfonyl)-9-(pyridin-4-yl)-3,9-diazaspiro[5.5]undecane] were, in that order, 97% and 99%.
The like results for `O=S(=O)(CCC1CCN(S(=O)(=O)c2cccc(Cl)c2Cl)C1)N1CCC(CCN2CCCC2)CC1` (stereo not drawn) [Example 17, 1-(2-(1-(2,3-Dichlorophenylsulfonyl)pyrrolidin-3-yl)ethylsulfonyl)-4-(2-(pyrrolidin-1-yl)ethyl)piperidine hydrochloride] were, in that order, 12% and 58%.
Consider `Cc1cc(S(=O)(=O)N2CCC[C@H]2CCCS(=O)(=O)N2CCC(Oc3ccncc3)CC2)c(C)cc1Cl` [Example 53, (S)-4-(1-(3-(1-(4-Chloro-2,5-dimethylphenylsulfonyl)pyrrolidin-2-yl)propylsulfonyl)piperidin-4-yloxy)pyridine], for which the inhibition at 10 µM in assay [1] stood at 86%; in assay [2], 74%.
On the same counts, the results for `O=S(=O)(CCC[C@@H]1CCCN1S(=O)(=O)c1cccc2ccccc12)N1CCC(Oc2ccncc2)CC1` [Example 50, (S)-4-(1-(3-(1-(Naphthalen-1-ylsulfonyl)pyrrolidin-2-yl)propylsulfonyl)piperidin-4-yloxy)pyridine] are 71% and 58%.
On to `O=S(=O)(CCC[C@@H]1CCCN1S(=O)(=O)c1cccc2ccccc12)N1CCC2(CCN(c3ccncc3)CC2)CC1` [Example 67, 3-(3-((S)-1-(Naphthalen-1-ylsulfonyl)pyrrolidin-2-yl)propylsulfonyl)-9-(pyridin-4-yl)-3,9-diazaspiro[5.5]undecane hydrochloride], for which the inhibition at 10 µM was 97% in assay [1] and 98% in assay [2].
Regarding `COc1cc(C)c(S(=O)(=O)N2CCCC(CCCS(=O)(=O)N3CCC(CCN4CCCC4)CC3)C2)c(C)c1C` (stereo not drawn) [Example 10, 1-(4-Methoxy-2,3,6-trimethylphenylsulfonyl)-3-(3-(4-(2-(pyrrolidin-1-yl)ethyl)piperidin-1-ylsulfonyl)propyl)piperidine hydrochloride], the inhibition at 10 µM in assay [1] was determined as 10%; in assay [2], 63%.
The like results for `COc1cc(C)c(S(=O)(=O)N2CCC[C@H]2CCCS(=O)(=O)N2CCC3(CCC(Oc4ccncc4)CC3)CC2)c(C)c1` [Example 66, 3-(3-((S)-1-(4-Methoxy-2,6-dimethylphenylsulfonyl)pyrrolidin-2-yl)propylsulfonyl)-9-(pyridin-4-yloxy)-3-azaspiro[5.5]undecane hydrochloride] were, in that order, 102% and 100%.
On the same counts, the results for `O=S(=O)(CCC[C@@H]1CCCN1S(=O)(=O)c1ccccc1C(F)(F)F)N1[C@@H]2CC[C@H]1C[C@H](Oc1ccncc1)C2` [Example 56, (1R,3R,5S)-3-(Pyridin-4-yloxy)-8-(3-((S)-1-(2-(trifluoromethyl)phenylsulfonyl)pyrrolidin-2-yl)propylsulfonyl)-8-azabicyclo[3.2.1]octane] are 99% and 95%.
The like results for `COc1cc(C)c(S(=O)(=O)N2CCC(CCS(=O)(=O)N3CCN(c4ccncc4)CC3)C2)c(C)c1C` (stereo not drawn) [Example 22, 1-(2-(1-(4-Methoxy-2,3,6-trimethylphenylsulfonyl)pyrrolidin-3-yl)ethylsulfonyl)-4-(pyridin-4-yl)piperazine] were, in that order, 95% and 103%.
`Cc1cc(S(=O)(=O)N2CCC[C@H]2CCCS(=O)(=O)N2CCN(C3CCN(C)CC3)CC2)c(C)cc1Cl` [Example 29, (S)-1-(3-(1-(4-Cloro-2,5-dimethylphenylsulfonyl)pyrrolidin-2-yl)propylsulfonyl)-4-(1-methylpiperidin-4-yl)piperazine]: the inhibition at 10 µM stood at 46% in assay [1] and 87% in assay [2].
The like results for `Cc1cccc(Cl)c1S(=O)(=O)N1CCCCC1CCCS(=O)(=O)N1CCC2(CCN(c3ccncc3)CC2)CC1` (stereo not drawn) [Example 86, 3-(3-(1-(2-Chloro-6-methylphenylsulfonyl)piperidin-2-yl)propylsulfonyl)-9-(pyridin-4-yl)-3,9-diazaspiro[5.5]undecane] were, in that order, 101% and 99%.
On the same counts, the results for `O=S(=O)(CCC1CCN(S(=O)(=O)c2cc(Cl)c(Cl)cc2Cl)C1)N1CCC(CCN2CCCC2)CC1` (stereo not drawn) [Example 18, 4-(2-(Pyrrolidin-1-yl)ethyl)-1-(2-(1-(2,4,5-trichlorophenylsulfonyl)pyrrolidin-3-yl)ethylsulfonyl)piperidine hydrochloride] are 11% and 65%.
`Cc1cccc(Cl)c1S(=O)(=O)N1CCC[C@H]1CCCS(=O)(=O)N1CC(N2[C@@H]3CC[C@H]2C[C@H](Oc2ccncc2)C3)C1` [Example 81, (1R,3s,5S)-8-(1-(3-((S)-1-(2-Chloro-6-methylphenylsulfonyl)pyrrolidin-2-yl)propylsulfonyl)azetidin-3-yl)-3-(pyridin-4-yloxy)-8-azabicyclo[3.2.1]octane]: the inhibition at 10 µM in assay [1] came out at 98%; in assay [2], 96%.

Broadly, the inhibition is the change of the read-out against control, counted positive when it falls.

These data come from patent US8119805B2, “Substituted disulfonamide compounds” (Gruenenthal GmbH, priority 2008, dated 2012).
